Paper PMC7794376 (Nature Communications, 2021)
Several values for one entry are separate records, joined by “and”; a condition that tells them apart may be missing. Identical values can stand only once. Like-named read-outs stand apart in the source and are kept apart here.

Experiments:
MtbCoaBC = MtbCoaBC (Mycobacterium tuberculosis, UniProt P9WNZ1); experiment: biochemical; assay type: biochemical; settings: for activity at 0.03125 µM / activity at 0.0625 µM / activity at 0.25 µM / activity at 0.5 µM / activity at 1 µM / activity at 2 µM: relative to average DMSO CT; for Activity R1 / Activity R3: slope of absorbance at 360nm vs time (s)
MtbCoaBC, sequence (P9WNZ1 whole entry): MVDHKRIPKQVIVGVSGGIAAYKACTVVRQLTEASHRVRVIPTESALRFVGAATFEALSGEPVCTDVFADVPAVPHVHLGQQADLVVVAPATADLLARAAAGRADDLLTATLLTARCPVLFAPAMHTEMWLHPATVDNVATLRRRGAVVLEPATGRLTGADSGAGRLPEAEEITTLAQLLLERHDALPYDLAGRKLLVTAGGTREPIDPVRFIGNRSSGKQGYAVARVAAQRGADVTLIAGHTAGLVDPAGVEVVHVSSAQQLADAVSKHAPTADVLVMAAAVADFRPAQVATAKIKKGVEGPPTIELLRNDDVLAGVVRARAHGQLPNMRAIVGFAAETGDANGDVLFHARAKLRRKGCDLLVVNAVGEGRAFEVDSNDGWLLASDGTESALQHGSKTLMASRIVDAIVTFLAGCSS

M. tuberculosis H37Rv = experiment: MIC determination in different media; assay type: cell-based; settings: Mycobacterium tuberculosis, read-out: Minimum inhibitory concentration (MIC)

For `Cc1ccc(-c2oc3cc(O)cc(O)c3c(=O)c2O)cc1C` [compound 2d], the inhibition at 0.03125 µM (MtbCoaBC; 2d at 0.03125 uM, replicate R1, read-out: Inhibition % R1) was 0.7%, the activity at 0.03125 µM (MtbCoaBC; 2d at 0.03125 uM, replicate R1, read-out: Activity % R1) was 99.3% and the “Activity R1” value (MtbCoaBC; 2d at 0.03125 uM, replicate R1) was 0.0001845. For the same compound, the inhibition at 0.03125 µM (MtbCoaBC; 2d at 0.03125 uM, replicate R2, read-out: Inhibition % R2) was 0.97%, the activity at 0.03125 µM (MtbCoaBC; 2d at 0.03125 uM, replicate R2, read-out: Activity % R2) was 99% and the inhibition at 0.03125 µM (MtbCoaBC; 2d at 0.03125 uM, replicate R3, read-out: Inhibition % R3) was 0.58%. The activity at 0.03125 µM (MtbCoaBC; 2d at 0.03125 uM, replicate R3, read-out: Activity % R3) was 99.4%, the “Activity R3” value (MtbCoaBC; 2d at 0.03125 uM, replicate R3) was 0.0001847 and the inhibition at 0.0625 µM (MtbCoaBC; 2d at 0.0625 uM, replicate R1, read-out: Inhibition % R1) was 8.46%. For the same compound, the activity at 0.0625 µM (MtbCoaBC; 2d at 0.0625 uM, replicate R1, read-out: Activity % R1) was 91.5%, the “Activity R1” value (MtbCoaBC; 2d at 0.0625 uM, replicate R1) was 0.0001701 and the inhibition at 0.0625 µM (MtbCoaBC; 2d at 0.0625 uM, replicate R2, read-out: Inhibition % R2) was 5.42%. It also gave an activity at 0.0625 µM (MtbCoaBC; 2d at 0.0625 uM, replicate R2, read-out: Activity % R2) of 94.6%, an inhibition at 0.0625 µM (MtbCoaBC; 2d at 0.0625 uM, replicate R3, read-out: Inhibition % R3) of 3.86% and an activity at 0.0625 µM (MtbCoaBC; 2d at 0.0625 uM, replicate R3, read-out: Activity % R3) of 96.1%. The “Activity R3” value (MtbCoaBC; 2d at 0.0625 uM, replicate R3) was 0.0001786, the inhibition at 0.25 µM (MtbCoaBC; 2d at 0.25 uM, replicate R1, read-out: Inhibition % R1) was 14.5% and the activity at 0.25 µM (MtbCoaBC; 2d at 0.25 uM, replicate R1, read-out: Activity % R1) was 85.5%. For the same compound, the “Activity R1” value (MtbCoaBC; 2d at 0.25 uM, replicate R1) was 0.0001588, the inhibition at 0.25 µM (MtbCoaBC; 2d at 0.25 uM, replicate R2, read-out: Inhibition % R2) was 31.1% and the activity at 0.25 µM (MtbCoaBC; 2d at 0.25 uM, replicate R2, read-out: Activity % R2) was 68.9%. The inhibition at 0.25 µM (MtbCoaBC; 2d at 0.25 uM, replicate R3, read-out: Inhibition % R3) was 29.5%, the activity at 0.25 µM (MtbCoaBC; 2d at 0.25 uM, replicate R3, read-out: Activity % R3) was 70.5% and the “Activity R3” value (MtbCoaBC; 2d at 0.25 uM, replicate R3) was 0.000131. The inhibition at 0.5 µM (MtbCoaBC; 2d at 0.5 uM, replicate R1, read-out: Inhibition % R1) was 41%, the activity at 0.5 µM (MtbCoaBC; 2d at 0.5 uM, replicate R1, read-out: Activity % R1) was 59% and the “Activity R1” value (MtbCoaBC; 2d at 0.5 uM, replicate R1) was 0.0001096. The inhibition at 0.5 µM (MtbCoaBC; 2d at 0.5 uM, replicate R2, read-out: Inhibition % R2) was 49.6%, the activity at 0.5 µM (MtbCoaBC; 2d at 0.5 uM, replicate R2, read-out: Activity % R2) was 50.4% and the inhibition at 0.5 µM (MtbCoaBC; 2d at 0.5 uM, replicate R3, read-out: Inhibition % R3) was 54%. The activity at 0.5 µM (MtbCoaBC; 2d at 0.5 uM, replicate R3, read-out: Activity % R3) was 46%, the “Activity R3” value (MtbCoaBC; 2d at 0.5 uM, replicate R3) was 8.549e-5 and 0.000085493 and the inhibition at 1 µM (MtbCoaBC; 2d at 1 uM, replicate R1, read-out: Inhibition % R1) was 63%. The activity at 1 µM (MtbCoaBC; 2d at 1 uM, replicate R1, read-out: Activity % R1) was 37%, the “Activity R1” value (MtbCoaBC; 2d at 1 uM, replicate R1) was 6.875e-5 and 0.000068751 and the inhibition at 1 µM (MtbCoaBC; 2d at 1 uM, replicate R2, read-out: Inhibition % R2) was 75%. For the same compound, the activity at 1 µM (MtbCoaBC; 2d at 1 uM, replicate R2, read-out: Activity % R2) was 25%, the inhibition at 1 µM (MtbCoaBC; 2d at 1 uM, replicate R3, read-out: Inhibition % R3) was 72.4% and the activity at 1 µM (MtbCoaBC; 2d at 1 uM, replicate R3, read-out: Activity % R3) was 27.6%. The “Activity R3” value (MtbCoaBC; 2d at 1 uM, replicate R3) was 5.136e-5 and 0.000051357, the inhibition at 2 µM (MtbCoaBC; 2d at 2 uM, replicate R1, read-out: Inhibition % R1) was 79% and the activity at 2 µM (MtbCoaBC; 2d at 2 uM, replicate R1, read-out: Activity % R1) was 21%. The “Activity R1” value (MtbCoaBC; 2d at 2 uM, replicate R1) was 3.9e-5 and 0.000039000, the inhibition at 2 µM (MtbCoaBC; 2d at 2 uM, replicate R2, read-out: Inhibition % R2) was 91% and the activity at 2 µM (MtbCoaBC; 2d at 2 uM, replicate R2, read-out: Activity % R2) was 8.99%. The inhibition at 2 µM (MtbCoaBC; 2d at 2 uM, replicate R3, read-out: Inhibition % R3) was 85%, the activity at 2 µM (MtbCoaBC; 2d at 2 uM, replicate R3, read-out: Activity % R3) was 15% and the “Activity R3” value (MtbCoaBC; 2d at 2 uM, replicate R3) was 2.786e-5 and 0.000027864. The “Activity R1” value (MtbCoaBC; 2d at […], replicate R1) was 0.0001624, the “Activity R3” value (MtbCoaBC; 2d at […], replicate R3) was 0.0001724 and the IC50 (MtbCoaBC; CoaB activity, […] CTP, […] PPA, 500 µM L-cysteine, average of three independent experiments ± SD, read-out: IC50 EnzChek MtbCoaBC) was 540 ± 60 nM. The MIC (M. tuberculosis H37Rv; 7H9/ADC/Glycerol) was greater than 250 µM, the MIC (M. tuberculosis H37Rv; 7H9/Cholesterol/Tyloxapol) was greater than 250 µM and the MIC (M. tuberculosis H37Rv; GAST/Fe) was greater than 250 µM.
